From PubChem BioAssay AID1845194 (Molecular Pharmacology Branch, DTP, NCI, 2023)
“And” between values parts separate entries of the source, which are not always exact repeats. Identical values can stand only once.

Test system: 287954-098-R-J1 tumor spheroid viability
Assay: Anticancer human tumor 287954-098-R-J1 patient-derived Ewing sarcoma cell line growth inhibition
Conditions: spheroids with HUVEC and MSC; for viability, T/C: stronger effect = lower value
Outline: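 Complex tumor spheroids combined malignant cells with endothelial cells and mesenchymal stem cells. DNA-damaging drugs and DNA repair inhibitors were tested alone and in combination, at half-log dilutions down from clinical Cmax (top 10 microM if Cmax unknown), 0.25% DMSO final.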

[1] = curve of first compound, second compound 0.003 µM
[2] = curve of first compound, second compound 0.00949 µM
[3] = curve of first compound, second compound 0.03 µM
[4] = curve of first compound, second compound 0.0949 µM
[5] = curve of first compound, second compound 0.3 µM
[6] = second compound 0.003 µM, first compound 0.0316 µM
[7] = second compound 0.003 µM, first compound 0.1 µM
[8] = second compound 0.003 µM, first compound 0.316 µM
[9] = second compound 0.003 µM, first compound 1 µM
[10] = second compound 0.003 µM, first compound 3.16 µM
[11] = second compound 0.003 µM, first compound 10 µM
[12] = second compound 0.00949 µM, first compound 0.0316 µM
[13] = second compound 0.00949 µM, first compound 0.1 µM
[14] = second compound 0.00949 µM, first compound 0.316 µM
[15] = second compound 0.00949 µM, first compound 1 µM
[16] = second compound 0.00949 µM, first compound 3.16 µM
[17] = second compound 0.00949 µM, first compound 10 µM
[18] = second compound 0.03 µM, first compound 0.0316 µM
[19] = second compound 0.03 µM, first compound 0.1 µM
[20] = second compound 0.03 µM, first compound 0.316 µM
[21] = second compound 0.03 µM, first compound 1 µM
[22] = second compound 0.03 µM, first compound 3.16 µM
[23] = second compound 0.03 µM, first compound 10 µM
[24] = second compound 0.0949 µM, first compound 0.0316 µM
[25] = second compound 0.0949 µM, first compound 0.1 µM
[26] = second compound 0.0949 µM, first compound 0.316 µM
[27] = second compound 0.0949 µM, first compound 1 µM
[28] = second compound 0.0949 µM, first compound 3.16 µM
[29] = second compound 0.0949 µM, first compound 10 µM
[30] = second compound 0.3 µM, first compound 0.0316 µM
[31] = second compound 0.3 µM, first compound 0.1 µM
[32] = second compound 0.3 µM, first compound 0.316 µM
[33] = second compound 0.3 µM, first compound 1 µM
[34] = second compound 0.3 µM, first compound 3.16 µM
[35] = second compound 0.3 µM, first compound 10 µM
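Further: spheroids exposed to compound for 7 days before viability readout.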
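Wherever viability, T/C is given: luminescent signal taken as surrogate of viable cell content; 100% = DMSO vehicle control viability and lower means growth inhibition.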

## CC1COCCN1c1cc(-c2ccnn2C)c2ccnc(-c3ccn[nH]3)c2n1 (configuration not stated) + Cn1nnc2c(C(N)=O)ncn2c1=O
Curve of first compound, second compound 1 µM
  IC50: 171 nM
Curve of first compound, second compound 3.16 µM
  IC50: 187 nM
Curve of first compound, second compound 10 µM
  IC50: 96.3 nM
Curve of first compound, second compound 31.6 µM
  IC50: 98.6 nM
Curve of first compound, second compound 100 µM
  IC50: < 31.6 nM
Second compound 1 µM, first compound 0.0316 µM
  viability, T/C: 112%
Second compound 1 µM, first compound 0.1 µM
  viability, T/C: 75.2%
Second compound 1 µM, first compound 0.316 µM
  viability, T/C: 21%
Second compound 1 µM, first compound 1 µM
  viability, T/C: 5.68%
Second compound 1 µM, first compound 3.16 µM
  viability, T/C: 1.55%
Second compound 1 µM, first compound 10 µM
  viability, T/C: 2.68%
Second compound 3.16 µM, first compound 0.0316 µM
  viability, T/C: 120%
Second compound 3.16 µM, first compound 0.1 µM
  viability, T/C: 91.1%
Second compound 3.16 µM, first compound 0.316 µM
  viability, T/C: 15.7%
Second compound 3.16 µM, first compound 1 µM
  viability, T/C: 4.89%
Second compound 3.16 µM, first compound 3.16 µM
  viability, T/C: 1.74%
Second compound 3.16 µM, first compound 10 µM
  viability, T/C: 2.56%
Second compound 10 µM, first compound 0.0316 µM
  viability, T/C: 114%
Second compound 10 µM, first compound 0.1 µM
  viability, T/C: 47.9%
Second compound 10 µM, first compound 0.316 µM
  viability, T/C: 9.18%
Second compound 10 µM, first compound 1 µM
  viability, T/C: 5.1%
Second compound 10 µM, first compound 3.16 µM
  viability, T/C: 1.63%
Second compound 10 µM, first compound 10 µM
  viability, T/C: 2.11%
Second compound 31.6 µM, first compound 0.0316 µM
  viability, T/C: 110%
Second compound 31.6 µM, first compound 0.1 µM
  viability, T/C: 49.3%
Second compound 31.6 µM, first compound 0.316 µM
  viability, T/C: 8.98%
Second compound 31.6 µM, first compound 1 µM
  viability, T/C: 3.51%
Second compound 31.6 µM, first compound 3.16 µM
  viability, T/C: 1.69%
Second compound 31.6 µM, first compound 10 µM
  viability, T/C: 2.41%
Second compound 100 µM, first compound 0.0316 µM
  viability, T/C: 12%
Second compound 100 µM, first compound 0.1 µM
  viability, T/C: 4.47%
Second compound 100 µM, first compound 0.316 µM
  viability, T/C: 2.32%
Second compound 100 µM, first compound 1 µM
  viability, T/C: 1.6%
Second compound 100 µM, first compound 3.16 µM
  viability, T/C: 1.28%
Second compound 100 µM, first compound 10 µM
  viability, T/C: 2.24%

## CC1COCCN1c1cc(-c2ccnn2C)c2ccnc(-c3ccn[nH]3)c2n1 (configuration not stated)
Compound 0.0316 µM
  viability, T/C: 107% and 114% and 106%
Compound 0.1 µM
  viability, T/C: 78.3% and 89.9% and 97.7%
Compound 0.316 µM
  viability, T/C: 22.6% and 21.9% and 32.2%
Compound 1 µM
  viability, T/C: 6.79% and 3.9% and 8.44%
Compound 3.16 µM
  viability, T/C: 1.99% and 1.74% and 1.91%
Compound 10 µM
  viability, T/C: 3.29% and 2.26% and 3.3%
Curve of compound
  IC50: 180 nM and 197 nM and 232 nM

## CC1COCCN1c1cc(-c2ccnn2C)c2ccnc(-c3ccn[nH]3)c2n1 (configuration not stated) + CC[C@@]1(O)C(=O)OCc2c1cc1n(c2=O)Cc2cc3c(CN(C)C)c(O)ccc3nc2-1
[1]
  IC50: 45.5 nM
[2]
  IC50: < 31.6 nM
[3]
  IC50: < 31.6 nM
[4]
  IC50: < 31.6 nM
[5]
  IC50: < 31.6 nM
[6]
  viability, T/C: 66.4%
[7]
  viability, T/C: 14.3%
[8]
  viability, T/C: 7.1%
[9]
  viability, T/C: 2.65%
[10]
  viability, T/C: 1.92%
[11]
  viability, T/C: 2.07%
[12]
  viability, T/C: 3.62%
[13]
  viability, T/C: 1.68%
[14]
  viability, T/C: 2.2%
[15]
  viability, T/C: 1.74%
[16]
  viability, T/C: 1.4%
[17]
  viability, T/C: 2%
[18]
  viability, T/C: 1.73%
[19]
  viability, T/C: 1.36%
[20]
  viability, T/C: 1.38%
[21]
  viability, T/C: 0.71%
[22]
  viability, T/C: 1.17%
[23]
  viability, T/C: 1.55%
[24]
  viability, T/C: 1.53%
[25]
  viability, T/C: 1.31%
[26]
  viability, T/C: 1.28%
[27]
  viability, T/C: 0.9%
[28]
  viability, T/C: 0.77%
[29]
  viability, T/C: 1.08%
[30]
  viability, T/C: 1.62%
[31]
  viability, T/C: 1.43%
[32]
  viability, T/C: 1.23%
[33]
  viability, T/C: 0.85%
[34]
  viability, T/C: 0.69%
[35]
  viability, T/C: 0.67%

## [2H]c1nc(C)nc([2H])c1-c1cc(NC[C@@H](C)c2cccc3c(C(=O)NC)ccnc23)ncn1 + CC[C@@]1(O)C(=O)OCc2c1cc1n(c2=O)Cc2cc3c(CN(C)C)c(O)ccc3nc2-1
[1]
  IC50: > 10000 nM
[2]
  IC50: > 10000 nM
[3]
  IC50: < 31.6 nM
[4]
  IC50: < 31.6 nM
[5]
  IC50: < 31.6 nM
[6]
  viability, T/C: 101%
[7]
  viability, T/C: 109%
[8]
  viability, T/C: 111%
[9]
  viability, T/C: 107%
[10]
  viability, T/C: 96.2%
[11]
  viability, T/C: 105%
[12]
  viability, T/C: 104%
[13]
  viability, T/C: 108%
[14]
  viability, T/C: 99.1%
[15]
  viability, T/C: 106%
[16]
  viability, T/C: 110%
[17]
  viability, T/C: 109%
[18]
  viability, T/C: 32%
[19]
  viability, T/C: 31.6%
[20]
  viability, T/C: 47.8%
[21]
  viability, T/C: 10.1%
[22]
  viability, T/C: 15.7%
[23]
  viability, T/C: 4.42%
[24]
  viability, T/C: 1.07%
[25]
  viability, T/C: 0.66%
[26]
  viability, T/C: 0.37%
[27]
  viability, T/C: 0.51%
[28]
  viability, T/C: 0.49%
[29]
  viability, T/C: 0.51%
[30]
  viability, T/C: 0.91%
[31]
  viability, T/C: 0.5%
[32]
  viability, T/C: 0.31%
[33]
  viability, T/C: 0.64%
[34]
  viability, T/C: 0.57%
[35]
  viability, T/C: 0.57%
